Experimental data as given in patent US20160046618A1, “Cyclopropyl Fused Thiazin-2-Amine Compounds as Beta-Secretase Inhibitors and Methods of Use” (AMGEN INC., priority 2014, published 2016).
Read-outs that look alike come from different tables or passages of the source.

How the values were obtained:
[1] = molecular target: human recombinant BACE1 (Homo sapiens (Human), UniProt P56817); assay: In vitro enzymatic BACE1 FRET assay; type: biochemical; conditions: read-out: IC50 IP (μM) BACE1 enzyme
Sequence of human recombinant BACE1 (P56817 46-501): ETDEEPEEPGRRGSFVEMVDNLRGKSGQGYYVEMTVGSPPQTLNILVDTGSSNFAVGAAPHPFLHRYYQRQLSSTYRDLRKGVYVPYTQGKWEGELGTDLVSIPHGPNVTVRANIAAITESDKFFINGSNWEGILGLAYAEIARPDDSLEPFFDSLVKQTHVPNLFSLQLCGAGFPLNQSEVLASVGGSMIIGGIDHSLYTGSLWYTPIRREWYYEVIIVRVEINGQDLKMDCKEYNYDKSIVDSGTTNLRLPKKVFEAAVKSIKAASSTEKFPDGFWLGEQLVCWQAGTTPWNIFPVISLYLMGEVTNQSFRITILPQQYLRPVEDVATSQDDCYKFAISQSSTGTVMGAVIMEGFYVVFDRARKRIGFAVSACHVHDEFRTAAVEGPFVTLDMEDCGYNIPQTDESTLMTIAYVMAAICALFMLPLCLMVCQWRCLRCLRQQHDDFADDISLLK
Outline: (§1)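 Protease purified by Ni-NTA chromatography; start with FRET substrate (50 nM); incubate 1 h; quench with Tris to neutral pH; read fluorescence ex 488 / em 590 nm.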

[2] = tested on: Aβ 40 in rat brain; assay: In vivo inhibition of beta-secretase: Aβ40 reduction in rat brain; conditions: after 4 h
Excerpt: (§2) In Vivo Inhibition of Beta-Secretase
Several animal models, including mouse, rat, dog, and monkey, may be used to screen for inhibition of beta-secretase activity in vivo following administration of a test compound sample. Animals used in this invention can be wild type, transgenic, or gene knockout animals. […] One to twenty-four hours following the administration of compound, animals are sacrificed, and brains as well as cerebrospinal fluid (CSF) and plasma are removed for analysis of A-beta levels and drug or test compound concentrations (Dovey et al., 2001, Journal of Neurochemistry, 76,173-181) Beginning at time 0, animals are administered by oral gavage, or other means of delivery such as intravenous injection, an inhibitory test compound of up to 100 mg/kg in a standard, conventional formulation, such as 2% hydroxypropyl methylcellulose, 1% Tween80. A separate group of animals receive 2% hydroxypropyl methylcellulose, 1% Tween80 alone, containing no test compound, and serve as a vehicle-control group. At the end of the test period, animals are sacrificed and brain tissues, plasma or cerebrospinal fluid are collected. […] Homogenates are centrifuged at 355,000 g, 4° C. for 30 minutes. CSF or brain supernatants are then analyzed for the presence of A-beta peptide by specific sandwich ELISA assays based on ECL (Electrochemiluminescence) technology. For example, rat Abeta40 is measured using biotinylated-4G8 (Signet) as a capture antibody and Fab40 (an in-house antibody specific to the C-terminal of Abeta40) as a detection antibody.
(§3) Actual vehicles used: Oral: 2% HPMC, 1% Tween80, pH 2.2

[3] = molecular target: Recombinant Cat D (Homo sapiens (Human), UniProt P07339); assay: In vitro enzymatic Cathepsin D (Cat D) FRET assay; type: biochemical; conditions: read-out: IC50 IP (μM) CatD
Sequence of Recombinant Cat D (P07339 65-412): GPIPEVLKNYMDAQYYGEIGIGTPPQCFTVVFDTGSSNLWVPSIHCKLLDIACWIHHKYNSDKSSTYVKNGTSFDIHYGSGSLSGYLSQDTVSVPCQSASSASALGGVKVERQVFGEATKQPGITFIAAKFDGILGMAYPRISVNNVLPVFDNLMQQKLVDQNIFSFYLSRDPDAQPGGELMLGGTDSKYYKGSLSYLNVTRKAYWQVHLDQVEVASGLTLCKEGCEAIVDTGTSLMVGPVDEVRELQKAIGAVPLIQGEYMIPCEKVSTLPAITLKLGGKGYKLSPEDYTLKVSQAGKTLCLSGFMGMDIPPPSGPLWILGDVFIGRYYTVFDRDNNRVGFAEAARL
Outline: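 Cleavage of a 20 nM fluorophore/quencher peptide by CHO-expressed recombinant Cat D proceeded for one hour at pH 3.5 (0.05 M citrate, 5 mM CHAPS, 10% DMSO final). Tris addition neutralized the pH to end the reaction. Fluorescence was then measured (ex 500 nm/em 580 nm).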

[4] = molecular target: human recombinant BACE2 (Homo sapiens (Human), UniProt Q9Y5Z0); assay: In vitro enzymatic BACE2 FRET assay; type: biochemical; conditions: read-out: IC50 IP (μM) BACE2 enzyme
Sequence of human recombinant BACE2 (Q9Y5Z0 63-518): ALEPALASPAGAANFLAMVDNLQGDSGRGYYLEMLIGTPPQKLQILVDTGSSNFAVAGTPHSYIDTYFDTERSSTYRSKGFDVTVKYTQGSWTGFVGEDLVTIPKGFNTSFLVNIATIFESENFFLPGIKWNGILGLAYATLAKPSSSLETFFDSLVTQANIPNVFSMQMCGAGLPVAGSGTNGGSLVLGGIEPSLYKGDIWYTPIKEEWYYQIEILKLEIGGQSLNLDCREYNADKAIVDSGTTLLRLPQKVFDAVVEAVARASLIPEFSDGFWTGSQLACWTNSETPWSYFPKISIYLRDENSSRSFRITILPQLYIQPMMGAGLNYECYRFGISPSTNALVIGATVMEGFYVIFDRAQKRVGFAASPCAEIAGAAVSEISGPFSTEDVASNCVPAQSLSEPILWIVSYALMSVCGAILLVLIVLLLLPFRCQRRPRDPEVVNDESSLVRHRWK
Outline: as §1

[5] = tested on: Aβ 40 in rat CSF; assay: In vivo inhibition of beta-secretase: Aβ40 reduction in rat CSF; conditions: after 4 h
Excerpt: as §2
Several animal models, including mouse, rat, dog, and monkey, may be used to screen for inhibition of beta-secretase activity in vivo following administration of a test compound sample. Animals used in this invention can be wild type, transgenic, or gene knockout animals. For example, the Tg2576 mouse model, prepared and conducted as described in Hsiao et al., 1996, Science 274, 99-102, and other non-transgenic or gene knockout animals are useful to analyze in vivo inhibition of Amyloid beta peptide (Abeta) production in the presence of inhibitory test compounds. Generally, 2 to 18 month old Tg2576 mice, gene knockout mice or non-transgenic animals are administered test compounds formulated in vehicles, such as cyclodextran, phosphate buffers, hydroxypropyl methylcellulose or other suitable vehicles. One to twenty-four hours following the administration of compound, animals are sacrificed, and brains as well as cerebrospinal fluid (CSF) and plasma are removed for analysis of A-beta levels and drug or test compound concentrations (Dovey et al., 2001, Journal of Neurochemistry, 76,173-181) Beginning at time 0, animals are administered by oral gavage, or other means of delivery such as intravenous injection, an inhibitory test compound of up to 100 mg/kg in a standard, conventional formulation, such as 2% hydroxypropyl methylcellulose, 1% Tween80. A separate group of animals receive 2% hydroxypropyl methylcellulose, 1% Tween80 alone, containing no test compound, and serve as a vehicle-control group. At the end of the test period, animals are sacrificed and brain tissues, plasma or cerebrospinal fluid are collected. […] Homogenates are centrifuged at 355,000 g, 4° C. for 30 minutes. CSF or brain supernatants are then analyzed for the presence of A-beta peptide by specific sandwich ELISA assays based on ECL (Electrochemiluminescence) technology. For example, rat Abeta40 is measured using biotinylated-4G8 (Signet) as a capture antibody and Fab40 (an in-house antibody specific to the C-terminal of Abeta40) as a detection antibody. For example, 4 hours after administration of 30 mg/kg oral dose of the test compound in 2% hydroxypropyl methylcellulose, 1% Tween80 (pH2.2) to 200 g male Sprague Dawley rats, amyloid beta peptide levels are measured for reduction by X % and Y % in cerebrospinal fluid and brain, respectively, when compared to the levels measured in the vehicle-treated or control mice.
as §3
The compounds of the invention may be shown to reduce the formation and/or deposition of amyloid beta peptide in the cerebrospinal fluid (CSF) as well as in the brain of a mouse or rat at either 3 mpk, 10 mpk or 30 mpk (mpk=mg compound per kg weight of the animal) dosing concentrations after 4 h.

[6] = tested on: Aβ40 in conditioned medium of cells stably expressing Amyloid Precursor Protein (APP); assay: In vitro BACE-1 cell-based assay (Aβ40 sandwich ELISA); conditions: read-out: IC50 IP (μM) BACE1 cell
Outline: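 APP-expressing cells treated 24 h at 37 °C with compound in 10-point dose response (top 100 μM or 10 μM, 0.1% DMSO final). Secreted Aβ40 in conditioned medium quantified by sandwich ELISA (pAb40 capture, biotinylated 6E10 detection, time-resolved europium fluorescence); IC50 from percent inhibition versus concentration.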

Structure (SMILES)	IC50 [1]	IC50 [3]	IC50 [4]	IC50 [6]	IC50 ([1]; BACE1 FRET enzyme assay)	IC50 ([3]; Cathepsin D FRET enzyme assay)	IC50 ([4]; BACE2 FRET enzyme assay)	IC50 ([6]; BACE1 cell-based assay)	% Aβ 40 reduction in rat brain at 10 mpk [2]	% Aβ 40 reduction in rat CSF at 10 mpk [5]	% Aβ 40 reduction in rat brain (3 mpk) ([2]; 3 mpk)	% Aβ 40 reduction in rat CSF (3 mpk) ([5]; 3 mpk)
C#CCOc1cnc2c(Nc3ccc(F)c([C@@]4(C)N=C(N)S[C@]5(CO)[C@H]4C5(F)F)c3)nccc2n1 [Example 707, ((1S,5S,6R)-3-amino-7,7-difluoro-5-(2-fluoro-5-((2-(2-propyn-1-yloxy)pyrido[3,4-b]pyrazin-5-yl)amino)phenyl)-5-methyl-2-thia-4-azabicyclo[4.1.0]hept-3-en-1-yl)methanol]	0.000636 µM	550 µM	0.0185 µM	0.00422 µM					25%	27%		
C#CCOc1cnc(C(=O)Nc2ccc(F)c([C@@]3(C)N=C(N)S[C@@]4(C(=O)NC5CC5)C[C@H]43)c2)cn1 [Example 795, (1S,5S,6S)-3-amino-N-cyclopropyl-5-(2-fluoro-5-(((5-(2-propyn-1-yloxy)-2-pyrazinyl)carbonyl)amino)phenyl)-5-methyl-2-thia-4-azabicyclo[4.1.0]hept-3-en-1-carboxamide]	0.0003 µM	16.6 µM	0.0104 µM	0.000608 µM					70%	76%		
C#CCOc1cnc2c(Nc3cc(F)c(F)c([C@@]4(C)N=C(N)S[C@@]5(COC)C[C@H]54)c3)nccc2n1 [Example 627, N-(3-((1S,5S,6S)-3-amino-1-(methoxymethyl)-5-methyl-2-thia-4-azabicyclo[4.1.0]hept-3-en-5-yl)-4,5-difluorophenyl)-2-(2-propyn-1-yloxy)pyrido[3,4-b]pyrazin-5-amine]	0.00114 µM	1390 µM	0.0384 µM	0.00428 µM					50%	59%		
COC[C@]12C[C@H]1[C@@](C)(c1cc(Nc3nccc4cc(OCc5cocn5)cnc34)cc(F)c1F)N=C(N)S2 [Example 728, N-(3-((1S,5S,6S)-3-amino-1-(methoxymethyl)-5-methyl-2-thia-4-azabicyclo[4.1.0]hept-3-en-5-yl)-4,5-difluorophenyl)-3-(1,3-oxazol-4-ylmethoxy)-1,7-naphthyridin-8-amine]	0.0238 µM	859 µM	0.553 µM	0.0127 µM					23%	31%		
N#Cc1cnc2c(Nc3ccc(F)c([C@@]4(CF)N=C(N)S[C@H]5C[C@H]54)c3)ncnc2c1 [Example 51, 4-((3-((1S,5S,6S)-3-amino-5-(fluoromethyl)-2-thia-4-azabicyclo[4.1.0]hept-3-en-5-yl)-4-fluorophenyl)amino)pyrido[3,2-d]pyrimidine-7-carbonitrile]					0.033 µM	1350 µM	0.0983 µM	0.00344 µM			17 (3 mpk) %	23 (3 mpk) %
Cc1cc(OCC(F)(F)F)cnc1C(=O)Nc1cc(F)c(F)c([C@@]2(C)N=C(N)S[C@@]3(C(F)F)C[C@@H]23)c1 [Example 679, N-(3-((1S,5S,6S)-3-amino-1-(difluoromethyl)-5-methyl-2-thia-4-azabicyclo[4.1.0]hept-3-en-5-yl)-4,5-difluorophenyl)-3-methyl-5-(2,2,2-trifluoroethoxy)-2-pyridinecarboxamide]	0.00435 µM	375 µM	0.746 µM	0.0495 µM					6%	20%		

Continued, in another order:

IC50 [1]	IC50 [3]	IC50 [4]	IC50 [6]	IC50 ([1]; BACE1 FRET enzyme assay)	IC50 ([3]; Cathepsin D FRET enzyme assay)	IC50 ([4]; BACE2 FRET enzyme assay)	IC50 ([6]; BACE1 cell-based assay)	Structure (SMILES)	% Aβ 40 reduction in rat brain at 10 mpk [2]	% Aβ 40 reduction in rat CSF at 10 mpk [5]	% Aβ 40 reduction in rat brain (3 mpk) ([2]; 3 mpk)	% Aβ 40 reduction in rat CSF (3 mpk) ([5]; 3 mpk)
0.000941 µM	725 µM	0.171 µM	0.00251 µM					Cc1noc(COc2cnc(C(=O)Nc3ccc(F)c([C@@]4(C)N=C(N)S[C@@]5(C(F)F)C[C@@H]45)c3)cn2)n1 [Example 1039, N-(3-((1S,5S,6S)-3-amino-1-(difluoromethyl)-5-methyl-2-thia-4-azabicyclo[4.1.0]hept-3-en-5-yl)-4-fluorophenyl)-5-((3-methyl-1,2,4-oxadiazol-5-yl)metnoxy)-2-pyrazinecarboxamide]	16%	13%		
0.000385 µM	735 µM	0.0419 µM	0.00182 µM					C#C[C@H](C)Oc1cnc(C(=O)Nc2ccc(F)c([C@@]3(C)N=C(N)S[C@@]4(C(F)F)C[C@@H]34)c2)cn1 [Example 966, N-(3-((1S,5S,6S)-3-amino-1-(difluoromethyl)-5-methyl-2-thia-4-azabicyclo[4.1.0]hept-3-en-5-yl)-4-fluorophenyl)-5-(((1S)-1-methyl-2-propyn-1-yl)oxy)-2-pyrazinecarboxamide]	68%	67%		
0.00378 µM	432 µM	0.115 µM	0.0493 µM					NC1=N[C@](CF)(c2cc(Nc3nccc4nc(OCc5cocn5)cnc34)cc(F)c2F)[C@@H]2C[C@@H]2S1 [Example 843, N-(3-((1S,5S,6S)-3-amino-5-(fluoromethyl)-2-thia-4-azabicyclo[4.1.0]hept-3-en-5-yl)-4,5-difluorophenyl)-2-(1,3-oxazol-4-ylmethoxy)pyrido[3,4-b]pyrazin-5-amine]	16%	51%		
0.000827 µM	118 µM	0.0642 µM	0.00167 µM					C[C@]1(c2cc(Nc3ncnc4cc(OCc5ncco5)cnc34)cc(F)c2F)N=C(N)S[C@@]2(C(F)F)C[C@@H]12 [Example 812, N-(3-((1S,5S,6S)-3-amino-1-(difluoromethyl)-5-methyl-2-thia-4-azabicyclo[4.1.0]hept-3-en-5-yl)-4,5-difluorophenyl)-7-(1,3-oxazol-2-ylmethoxy)pyrido[3,2-d]pyrimidin-4-amine]	38%	52%		
